One assay has as its target T1, TSHR (Mus musculus, UniProt P47750).
T1 construct: host or cells: mouse, in vivo (TRH- or M22-administered)
Assay: not given
The settings on record: TSH-releasing hormone (TRH)-administered mouse; cited from earlier work.
T1 sequence (P47750 22-764): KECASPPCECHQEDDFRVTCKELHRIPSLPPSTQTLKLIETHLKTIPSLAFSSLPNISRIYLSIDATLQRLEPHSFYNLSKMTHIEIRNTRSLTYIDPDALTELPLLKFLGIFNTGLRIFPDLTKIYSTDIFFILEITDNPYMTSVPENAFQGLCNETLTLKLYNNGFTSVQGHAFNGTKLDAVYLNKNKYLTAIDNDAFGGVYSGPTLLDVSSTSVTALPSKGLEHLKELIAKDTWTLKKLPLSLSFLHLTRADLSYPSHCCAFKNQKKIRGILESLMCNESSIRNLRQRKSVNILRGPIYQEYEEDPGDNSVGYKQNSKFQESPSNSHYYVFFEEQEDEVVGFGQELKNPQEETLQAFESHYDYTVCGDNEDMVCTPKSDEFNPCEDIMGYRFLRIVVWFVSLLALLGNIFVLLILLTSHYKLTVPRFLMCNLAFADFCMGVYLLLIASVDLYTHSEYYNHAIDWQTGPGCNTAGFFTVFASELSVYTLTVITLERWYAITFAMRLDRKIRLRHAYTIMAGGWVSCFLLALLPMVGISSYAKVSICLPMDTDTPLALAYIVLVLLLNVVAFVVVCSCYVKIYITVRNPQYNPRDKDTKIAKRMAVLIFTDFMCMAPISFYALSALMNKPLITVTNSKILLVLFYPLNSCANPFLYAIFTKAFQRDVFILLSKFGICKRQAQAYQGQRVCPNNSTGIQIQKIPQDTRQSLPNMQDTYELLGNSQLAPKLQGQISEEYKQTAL
With `COc1ccc(C2Nc3ccccc3C(=O)N2Cc2ccco2)cc1COc1c(C)cc(NC(C)=O)cc1C` (stereo not drawn) [NCGC00242364], the “blood T4 concentration” value is “lowering a blood T4 concentration”.

Still in this assay, the particulars now being: thyroid-stimulating antibody (M22)-administered mouse; cited from earlier work.
Take `COc1ccc(C2Nc3ccccc3C(=O)N2Cc2ccco2)cc1COc1c(C)cc(NC(C)=O)cc1C` (stereo not drawn) [NCGC00242364]: the “blood T4 concentration” value is on record as “lowering a blood T4 concentration”.

Another assay deals with T2, human TSHR (Homo sapiens, UniProt P16473).
T2 construct: expressed in transfected cells
T2 sequence (P16473 21-764): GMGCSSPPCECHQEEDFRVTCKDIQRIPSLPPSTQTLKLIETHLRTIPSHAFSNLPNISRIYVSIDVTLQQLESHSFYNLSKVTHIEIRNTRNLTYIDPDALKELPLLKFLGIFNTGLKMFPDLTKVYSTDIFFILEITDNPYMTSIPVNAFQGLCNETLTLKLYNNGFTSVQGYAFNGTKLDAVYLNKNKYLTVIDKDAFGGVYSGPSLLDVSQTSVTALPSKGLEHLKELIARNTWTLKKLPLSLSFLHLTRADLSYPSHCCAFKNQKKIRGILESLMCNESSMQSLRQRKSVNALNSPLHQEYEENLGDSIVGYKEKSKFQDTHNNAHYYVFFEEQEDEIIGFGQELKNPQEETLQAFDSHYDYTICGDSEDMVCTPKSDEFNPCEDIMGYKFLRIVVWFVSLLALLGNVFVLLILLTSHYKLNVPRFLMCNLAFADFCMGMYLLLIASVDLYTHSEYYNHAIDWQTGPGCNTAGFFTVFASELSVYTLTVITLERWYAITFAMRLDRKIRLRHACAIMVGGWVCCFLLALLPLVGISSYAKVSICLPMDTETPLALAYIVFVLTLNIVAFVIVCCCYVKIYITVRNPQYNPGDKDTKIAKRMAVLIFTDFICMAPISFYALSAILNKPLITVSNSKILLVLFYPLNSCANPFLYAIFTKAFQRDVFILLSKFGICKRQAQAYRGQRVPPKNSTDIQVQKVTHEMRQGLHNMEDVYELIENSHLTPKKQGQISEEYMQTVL
Kind of assay: Measurement of antagonist activity using TSH-induced cAMP production in human TSHR-stably expressing CHO cells. The format is cell-based. The conditions noted are these: human TSH final concentration 50 ng/mL. A digest of the protocol:
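CHO cells stably expressing human TSHR, in HBSS/20 mM HEPES/1 mM IBMX, pre-incubated with compound 15 min at room temperature, then stimulated 1 h at 37°C with human TSH (50 ng/mL final). cAMP measured by HTRF (665/620 nm), expressed as % of control; IC50 from concentration-response.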
Background: Changes in cAMP serve as a functional read-out for many G protein-coupled receptors.
`NC(=O)Nc1ccc(CN2CCCC2)n(Cc2cc(C(F)(F)F)ccc2F)c1=O` [Example E-6, 1-(1-(2-fluoro-5-(trifluoromethyl)benzyl)-2-oxo-6-(pyrrolidin-1-ylmethyl)-1,2-dihydropyridin-3-yl)urea] registered a half-maximal inhibitory concentration (IC50) of under 3 µM.

On to `NC(=O)Nc1ccc2n(c1=O)CC(c1cccc(C(F)(F)F)c1)C2` (stereo not drawn) [Example E-7, 1-(5-oxo-2-(3-(trifluoromethyl)phenyl)-1,2,3,5-tetrahydroindolizin-6-yl)urea], for which the IC50 is 3 to 30 µM.

The compound `Cc1ccc(NC(=O)C(F)(F)F)c(=O)n1Cc1cc(C(F)(F)F)cc(Cl)c1F` [Example E-8, N-(1-(3-chloro-2-fluoro-5-(trifluoromethyl)benzyl)-6-methyl-2-oxo-1,2-dihydropyridin-3-yl)-2,2,2-trifluoroacetamide] registered a half-maximal inhibitory concentration (IC50) of 3 to 30 µM.

For the compound `Cc1ccc(NC(=O)N2CCC2)c(=O)n1Cc1cc(C(F)(F)F)cc(Cl)c1F` [Example E-9, N-(1-(3-chloro-2-fluoro-5-(trifluoromethyl)benzyl)-6-methyl-2-oxo-1,2-dihydropyridin-3-yl)azetidine-1-carboxamide], the IC50 is under 3 µM.

`NC(=O)N[C@@H]1Cc2ccc(C(F)F)cc2N(Cc2cc(C(F)(F)F)ccc2CO)C1=O` [Example F-1, (R)-1-(7-(difluoromethyl)-1-(2-(hydroxymethyl)-5-(trifluoromethyl)benzyl)-2-oxo-1,2,3,4-tetrahydroquinolin-3-yl)urea]: the IC50 was 3 to 30 µM.

Compound `NC(=O)N[C@@H]1Cc2ccc(C(F)F)cc2N(Cc2cccc(C(F)(F)F)n2)C1=O` [Example F-2, (R)-1-(7-(difluoromethyl)-2-oxo-1-((6-(trifluoromethyl)pyridin-2-yl)methyl)-1,2,3,4-tetrahydroquinolin-3-yl)urea] returned a 50% inhibitory concentration (IC50) of under 3 µM.

In turn, `CN(C)Cc1cccc2c1N(Cc1cc(C(F)(F)F)ccc1F)C(=O)[C@H](NC(N)=O)C2` [Example F-3, (R)-1-(8-((dimethylamino)methyl)-1-(2-fluoro-5-(trifluoromethyl)benzyl)-2-oxo-1,2,3,4-tetrahydroquinolin-3-yl)urea] returned a half-maximal inhibitory concentration (IC50) of 3 to 30 µM.

The compound `NC(=O)N[C@@H]1Cc2ccsc2N(Cc2cc(C(F)(F)F)ccc2F)C1=O` [Example F-4, (R)-1-(7-(2-fluoro-5-(trifluoromethyl)benzyl)-6-oxo-4,5,6,7-tetrahydrothieno[2,3-b]pyridin-5-yl)urea] returned a 50% inhibitory concentration (IC50) of under 3 µM.

Compound `NC(=O)N[C@@H]1Cc2sccc2N(Cc2cc(C(F)(F)F)ccc2F)C1=O` [Example F-5, (R)-1-(4-(2-fluoro-5-(trifluoromethyl)benzyl)-5-oxo-4,5,6,7-tetrahydrothieno[3,2-b]pyridin-6-yl)urea] registered an IC50 of under 3 µM.

In the case of `Cc1nc2c(s1)N(Cc1cc(C(F)(F)F)ccc1F)C(=O)[C@H](NC(N)=O)C2` [Example F-6, (R)-1-(4-(2-fluoro-5-(trifluoromethyl)benzyl)-2-methyl-5-oxo-4,5,6,7-tetrahydrothiazolo[5,4-b]pyridin-6-yl)urea], the IC50 lay within 3 to 30 µM.

`NC(=O)CC1Oc2ccccc2N(Cc2cc(C(F)(F)F)ccc2F)C1=O` (stereo not drawn) [Example F-7, 2-(4-(2-fluoro-5-(trifluoromethyl)benzyl)-3-oxo-3,4-dihydro-2H-benzo[b][1,4]oxazin-2-yl)acetamide] returned an IC50 of over 30 µM.

As for `CC(C)(C)OC(=O)Nc1ccc2c(c1)OC(CC(N)=O)C(=O)N2Cc1cc(C(F)(F)F)ccc1F` (stereo not drawn) [Example F-8, tert-butyl (2-(2-amino-2-oxoethyl)-4-(2-fluoro-5-(trifluoromethyl)benzyl)-3-oxo-3,4-dihydro-2H-benzo[b][1,4]oxazin-7-yl)carbamate], the IC50 was under 3 µM.

For `CC(C)(C)NC(=O)Nc1ccc2c(c1)nc(NC(N)=O)c(=O)n2Cc1cc(C(F)(F)F)ccc1F` [Example F-9, 1-(tert-butyl)-3-(1-(2-fluoro-5-(trifluoromethyl)benzyl)-2-oxo-3-ureido-1,2-dihydroquinoxalin-6-yl)urea], the IC50 was under 3 µM.

As a reminder, the IC50 is the concentration needed to halve the response being measured. A high value points to weaker potency.

(Values after patent publication EP4818157A1, “N-SUBSTITUTED CYCLIC AMIDE COMPOUND” (Kissei Pharmaceutical Co., Ltd., priority 2023, dated 2025).)
